According to US12595266B2, “Pesticidally active heterocyclic derivatives with sulfur containing substituents” (SYNGENTA CROP PROTECTION AG, priority 2020, dated 2026):

What was measured:
Assay type in all cases: in vivo
[1] = test system: Myzus persicae (Green Peach Aphid); experiment: Activity against Myzus persicae (green peach aphid), feeding/contact activity; details: foliar, 144 h, application rate of 200 ppm, sunflower leaf discs sprayed, aphid population of mixed ages, 6 days after infestation
Procedure: Example B6: Activity Against Myzus persicae (Green Peach Aphid) Feeding/Contact Activity
Sunflower leaf discs were placed onto agar in a 24-well microtiter plate and sprayed with aqueous test solutions prepared from 10′000 ppm DMSO stock solutions. After drying, the leaf discs were infested with an aphid population of mixed ages. The samples were assessed for mortality 6 days after infestation.

[2] = test system: Plutella xylostella (Diamond Back Moth); experiment: Activity against Plutella xylostella (diamond back moth); details: 192 h, application rate of 200 ppm, artificial diet, Plutella eggs, 8 days after infestation, read-out: effect in at least one of the two categories (mortality or growth inhibition)
Procedure: Example B7: Activity Against Plutella xylostella (Diamond Back Moth)
24-well microtiter plates with artificial diet were treated with aqueous test solutions prepared from 10′000 ppm DMSO stock solutions by pipetting. After drying, Plutella eggs were pipetted through a plastic stencil onto a gel blotting paper and the plate was closed with it. The samples were assessed for mortality and growth inhibition in comparison to untreated samples 8 days after infestation.

[3] = test system: Myzus persicae (Green Peach Aphid); experiment: Activity against Myzus persicae (green peach aphid), systemic activity; details: 144 h, test rate of 24 ppm, roots of infested pea seedlings in test solution (systemic), 6 days
Procedure: Example B9: Activity Against Myzus persicae (Green Peach Aphid) Systemic Activity
Roots of pea seedlings infested with an aphid population of mixed ages were placed directly into aqueous test solutions prepared from 10′000 DMSO stock solutions. The samples were assessed for mortality 6 days after placing seedlings into test solutions.

[4] = test system: Chilo suppressalis (Striped Rice Stemborer); experiment: Activity against Chilo suppressalis (striped rice stemborer); details: 144 h, application rate of 200 ppm, artificial diet, L2 larvae, 6 days after infestation, read-out: control (at least one of mortality, anti-feedant effect, growth inhibition)
Procedure: Example B2: Activity Against Chilo suppressalis (Striped Rice Stemborer)
24-well microtiter plates with artificial diet were treated with aqueous test solutions prepared from 10′000 ppm DMSO stock solutions by pipetting. After drying, the plates were infested with L2 larvae (6-8 per well). The samples were assessed for mortality, anti-feeding effect, and growth inhibition in comparison to untreated samples 6 days after infestation. Control of Chilo suppressalis by a test sample is given when at least one of the categories mortality, anti-feedant effect, and growth inhibition is higher than the untreated sample.

[5] = test system: Diabrotica balteata (Corn Root Worm); experiment: Activity against Diabrotica balteata (corn root worm); details: 96 h, application rate of 200 ppm, maize sprouts sprayed, L2 larvae, 4 days after infestation, read-out: effect in at least one of the two categories (mortality or growth inhibition)
Procedure: Example B3: Activity Against Diabrotica balteata (Corn Root Worm)
Maize sprouts placed onto an agar layer in 24-well microtiter plates were treated with aqueous test solutions prepared from 10′000 ppm DMSO stock solutions by spraying. After drying, the plates were infested with L2 larvae (6 to 10 per well). The samples were assessed for mortality and growth inhibition in comparison to untreated samples 4 days after infestation.

[6] = test system: Spodoptera littoralis (Egyptian Cotton Leaf Worm); experiment: Activity against Spodoptera littoralis (Egyptian cotton leaf worm); details: foliar, 72 h, application rate of 200 ppm, cotton leaf discs sprayed, L1 larvae, 3 days after infestation, read-out: control (at least one of mortality, anti-feedant effect, growth inhibition)
Procedure: Example B8: Activity Against Spodoptera littoralis (Egyptian Cotton Leaf Worm)
Cotton leaf discs were placed onto agar in 24-well microtiter plates and sprayed with aqueous test solutions prepared from 10′000 ppm DMSO stock solutions. After drying the leaf discs were infested with five L1 larvae. The samples were assessed for mortality, anti-feeding effect, and growth inhibition in comparison to untreated samples 3 days after infestation. Control of Spodoptera littoralis by a test sample is given when at least one of the categories mortality, anti-feedant effect, and growth inhibition is higher than the untreated sample.

[7] = test system: Euschistus heros (Neotropical Brown Stink Bug); experiment: Activity against Euschistus heros (neotropical brown stink bug); details: 120 h, application rate of 200 ppm, soybean leaves sprayed, N2 nymphs, 5 days after infestation, read-out: effect in at least one of the two categories (mortality or growth inhibition)
Procedure: Example B4: Activity Against Euschistus heros (Neotropical Brown Stink Bug)
Soybean leaves on agar in 24-well microtiter plates were sprayed with aqueous test solutions prepared from 10′000 ppm DMSO stock solutions. After drying the leaves were infested with N2 nymphs. The samples were assessed for mortality and growth inhibition in comparison to untreated samples 5 days after infestation.

CCS(=O)(=O)c1c(N2Cc3cc4c(cc3C2=O)OC(F)(F)O4)nc(-c2cnn(CC3(C#N)CC3)c2)n1C [Compound P5, 1-[[4-[4-(2,2-difluoro-7-oxo-5H-[1,3]dioxolo[4,5-f]isoindol-6-yl)-5-ethylsulfonyl-1-methyl-imidazol-2-yl]pyrazol-1-yl]methyl]cyclopropanecarbonitrile]
≥ 80%: mortality at 200 ppm [1] | percent effect (mortality or growth inhibition) at 200 ppm [2] | mortality at 24 ppm [3]

CCS(=O)(=O)c1c(N2Cc3cc4c(cc3C2=O)OC(F)(F)O4)nc(OCC(F)(F)F)n1C [Compound P6, 6-[5-ethylsulfonyl-1-methyl-2-(2,2,2-trifluoroethoxy)imidazol-4-yl]-2,2-difluoro-5H-[1,3]dioxolo[4,5-f]isoindol-7-one]
≥ 80%: percent control (mortality, anti-feedant effect or growth inhibition) at 200 ppm [4] | percent effect (mortality or growth inhibition) at 200 ppm [5] | percent effect (mortality or growth inhibition) at 200 ppm [2] | percent control (mortality, anti-feedant effect or growth inhibition) at 200 ppm [6]

CCS(=O)(=O)c1c(N2Cc3cc4c(cc3C2=O)OC(F)(F)O4)nc(-c2cncnc2)n1C [Compound P7, 6-(5-ethylsulfonyl-1-methyl-2-pyrimidin-5-yl-imidazol-4-yl)-2,2-difluoro-5H-[1,3]dioxolo[4,5-f]isoindol-7-one]
≥ 80%: percent effect (mortality or growth inhibition) at 200 ppm [2] | mortality at 24 ppm [3]

CCS(=O)(=O)c1cc(OCC(F)(F)F)cnc1N1Cc2cc3c(cc2C1=O)OC(F)(F)O3 [Compound P8, 6-[3-ethylsulfonyl-5-(2,2,2-trifluoroethoxy)-2-pyridyl]-2,2-difluoro-5H-[1,3]dioxolo[4,5-f]isoindol-7-one]
≥ 80%: percent control (mortality, anti-feedant effect or growth inhibition) at 200 ppm [4] | percent effect (mortality or growth inhibition) at 200 ppm [5] | percent effect (mortality or growth inhibition) at 200 ppm [2] | percent control (mortality, anti-feedant effect or growth inhibition) at 200 ppm [6]

CCS(=O)(=O)c1ccc(C2CC2)nc1N1Cc2cc3c(cc2C1=O)OC(F)(F)O3 [Compound P10, 6-(6-cyclopropyl-3-ethylsulfonyl-2-pyridyl)-2,2-difluoro-5H-[1,3]dioxolo[4,5-f]isoindol-7-one]
≥ 80%: percent control (mortality, anti-feedant effect or growth inhibition) at 200 ppm [4] | percent effect (mortality or growth inhibition) at 200 ppm [7] | percent effect (mortality or growth inhibition) at 200 ppm [2] | percent control (mortality, anti-feedant effect or growth inhibition) at 200 ppm [6]

CCS(=O)(=O)c1ccc(-n2cncn2)nc1N1Cc2cc3c(cc2C1=O)OC(F)(F)O3 [Compound P11, 6-[3-ethylsulfonyl-6-(1,2,4-triazol-1-yl)-2-pyridyl]-2,2-difluoro-5H-[1,3]dioxolo[4,5-f]isoindol-7-one]
≥ 80%: percent control (mortality, anti-feedant effect or growth inhibition) at 200 ppm [4] | percent effect (mortality or growth inhibition) at 200 ppm [5] | percent effect (mortality or growth inhibition) at 200 ppm [2] | percent control (mortality, anti-feedant effect or growth inhibition) at 200 ppm [6]

CCS(=O)(=O)c1cc(OCC(C)(F)F)cnc1N1Cc2cc3c(cc2C1=O)OC(F)(F)O3 [Compound P12, 6-[5-(2,2-difluoropropoxy)-3-ethylsulfonyl-2-pyridyl]-2,2-difluoro-5H-[1,3]dioxolo[4,5-f]isoindol-7-one]
≥ 80%: percent control (mortality, anti-feedant effect or growth inhibition) at 200 ppm [4] | percent effect (mortality or growth inhibition) at 200 ppm [5] | percent effect (mortality or growth inhibition) at 200 ppm [7] | mortality at 200 ppm [1] | percent effect (mortality or growth inhibition) at 200 ppm [2] | percent control (mortality, anti-feedant effect or growth inhibition) at 200 ppm [6]

CCS(=O)(=O)c1cc(C(F)(F)F)cnc1N1Cc2cc3c(cc2C1=O)OC(F)(F)O3 [Compound P13, 6-[3-ethylsulfonyl-5-(trifluoromethyl)-2-pyridyl]-2,2-difluoro-5H-[1,3]dioxolo[4,5-f]isoindol-7-one]
≥ 80%: percent control (mortality, anti-feedant effect or growth inhibition) at 200 ppm [4] | percent effect (mortality or growth inhibition) at 200 ppm [2] | percent control (mortality, anti-feedant effect or growth inhibition) at 200 ppm [6]

CCS(=O)(=O)c1c(N2Cc3cc4c(cc3C2=O)OC(F)(F)O4)nc(-c2cnn(C3CC3)c2)n1C [Compound P17, 6-[2-(1-cyclopropylpyrazol-4-yl)-5-ethylsulfonyl-1-methyl-imidazol-4-yl]-2,2-difluoro-5H-[1,3]dioxolo[4,5-f]isoindol-7-one]
≥ 80%: percent control (mortality, anti-feedant effect or growth inhibition) at 200 ppm [4] | percent effect (mortality or growth inhibition) at 200 ppm [5] | percent effect (mortality or growth inhibition) at 200 ppm [7] | mortality at 200 ppm [1] | percent effect (mortality or growth inhibition) at 200 ppm [2] | percent control (mortality, anti-feedant effect or growth inhibition) at 200 ppm [6]

CCS(=O)(=O)c1cc(N(C)C(C)=O)cnc1N1Cc2cc3c(cc2C1=O)OC(F)(F)O3 [Compound P18, N-[6-(2,2-difluoro-7-oxo-5H-[1,3]dioxolo[4,5-f]isoindol-6-yl)-5-ethylsulfonyl-3-pyridyl]-N-methyl-acetamide]
≥ 80%: percent effect (mortality or growth inhibition) at 200 ppm [7] | mortality at 200 ppm [1] | percent effect (mortality or growth inhibition) at 200 ppm [2]

CCS(=O)(=O)c1cc(C2CC2)cnc1N1Cc2cc3c(cc2C1=O)OC(F)(F)O3 [Compound P19, 6-(5-cyclopropyl-3-ethylsulfonyl-2-pyridyl)-2,2-difluoro-5H-[1,3]dioxolo[4,5-f]isoindol-7-one]
≥ 80%: percent control (mortality, anti-feedant effect or growth inhibition) at 200 ppm [4] | percent effect (mortality or growth inhibition) at 200 ppm [5] | mortality at 200 ppm [1] | percent effect (mortality or growth inhibition) at 200 ppm [2] | percent control (mortality, anti-feedant effect or growth inhibition) at 200 ppm [6]

CCS(=O)(=O)c1c(N2Cc3cc4c(cc3C2=O)OC(F)(F)O4)nc(-n2ccc(Cl)n2)n1C [Compound P21, 6-[2-(3-chloropyrazol-1-yl)-5-ethylsulfonyl-1-methyl-imidazol-4-yl]-2,2-difluoro-5H-[1,3]dioxolo[4,5-f]isoindol-7-one]
≥ 80%: percent effect (mortality or growth inhibition) at 200 ppm [5] | percent effect (mortality or growth inhibition) at 200 ppm [7] | mortality at 200 ppm [1] | percent effect (mortality or growth inhibition) at 200 ppm [2] | percent control (mortality, anti-feedant effect or growth inhibition) at 200 ppm [6]

CCS(=O)(=O)c1c(N2Cc3cc4c(cc3C2=O)OC(F)(F)O4)nc(-c2cc(C3CC3)no2)n1C [Compound P26, 6-[2-(3-cyclopropylisoxazol-5-yl)-5-ethylsulfonyl-1-methyl-imidazol-4-yl]-2,2-difluoro-5H-[1,3]dioxolo[4,5-f]isoindol-7-one]
≥ 80%: percent control (mortality, anti-feedant effect or growth inhibition) at 200 ppm [4] | percent effect (mortality or growth inhibition) at 200 ppm [5] | mortality at 200 ppm [1] | percent effect (mortality or growth inhibition) at 200 ppm [2] | percent control (mortality, anti-feedant effect or growth inhibition) at 200 ppm [6]
